Test results: patent US7192746B2, “α-Isomaltosyltransferase, process for producing the same and use thereof” (Kabushiki Kaisha Hayashibara Seibutsu Kagaku Kenkyujo, priority 2000, dated 2007)

Key:
Assay in all cases: Specificity to transferring acceptor
Type in all cases: biochemical
Parameters in all cases: key: −: no saccharide transferred product was formed; ±: a saccharide-transferred product formed in an amount of less than one percent to the total sugars; +: a saccharide-transferred product was formed in an amount of over one percent but below 10% to the total sugars; ++: a saccharide-transferred product was formed in an amount of over 10% to the total sugars
[1] = test system: α-isomaltosyl-transferring enzyme from Arthrobacter globiformis A19; settings: partially purified enzyme, panose as saccharide donor, 10 units/g substrate, 3.2% (w/v), 30° C., pH 6.0, 24 hours
Protocol: (§1) Saccharides were tested as follows to examine whether they can be used as transferring acceptors for the α-isomaltosyl-transferring enzyme of the present invention. A solution of D-glucose, D-xylose, L-xylose, D-galactose, D-fructose, D-mannose, D-arabinose, D-fucose, L-sorbose, L-rhamnose, methyl-α-glucoside (or methyl-α-glucopyranoside), methyl-β-glucoside (or methyl-β-glucopyranoside), N-acetyl-D-glucosamine, D-ribose, L-ribose, D-psicose, sorbitol, xylitol, mannitol, arabitol, ribitol, erythritol, maltose, maltotriose, maltotetraose, maltopentaose, isomaltose, isomaltotriose, α,α-trehalose, α,β-trehalose, kojibiose, nigerose, cellobiose, gentibiose, isopanose, maltitol, maltotriitol, lactose, sucrose, erlose, isomaltosylglucoside, α-cyclodextrin, β-cyclodextrin, γ-cyclodextrin, or L-ascorbic acid was prepared. To each solution was added panose as a saccharide donor to give an equal concentration, admixed with 10 units/g substrate of a purified specimen of either α-isomaltosyl-transferring enzyme from Bacillus globisporus C9 obtained by the method in Experiment 4, Bacillus globisporus C11 obtained by the method in Experiment 7, Bacillus globisporus N75 obtained by the method in Experiment 11, or Arthrobacter ramosus S1 obtained by the method in Experiment 15, or a partially purified specimen of α-isomaltosyl-transferring enzyme from Arthrobacter globiformis A19 obtained by the method in Experiment 18, followed by adjusting the saccharide concentration to 3.2% (w/v). The mixtures thus obtained were enzymatically reacted at 30° C. and Ph 6.0 for 24 hours. The saccharide composition of the resulting reaction mixtures were analyzed on gas chromatography (abbreviated as “GLC” hereinafter) for monosaccharides and disaccharides as testing saccharides, and on HPLC for tri- or higher-saccharides as testing saccharides to confirm whether these saccharides can be used as transferring acceptors for the above enzymes with an index of the positive or negative formation of a saccharide transferred product. In performing GLC, the following apparatuses and conditions were used: GLC apparatus, “GC-16A” commercialized by Shimadzu Corporation, Tokyo, Japan; column, a stainless-steel column, 3 mm in diameter and 2 m in length, packed with 2% “SILICONE OV-17/[…]”, commercialized by GL Sciences Inc., Tokyo, Japan; carrier gas, nitrogen gas at a flow rate of 40 ml/min under temperature conditions of increasing from 160° C. to 320° C. at an increasing temperature rate of 7.5° C./min; and detection, a hydrogen flame ionization detector. In the case of HPLC analysis, the apparatuses and conditions used were: HPLC apparatus, “CCPD” commercialized by Tosoh Corporation, Tokyo, Japan; column, “ODS-AQ-303” commercialized by YMC Co., Ltd., Tokyo, Japan; eluent, water at a flow rate of 0.5 ml/min; and detection, a differential refractometer.

[2] = test system: α-isomaltosyl-transferring enzyme from Arthrobacter ramosus S1; settings: panose as saccharide donor, 10 units/g substrate, 3.2% (w/v), 30° C., pH 6.0, 24 hours
Protocol: as §1

[3] = test system: α-isomaltosyl-transferring enzyme from Bacillus globisporus C11; settings: panose as saccharide donor, 10 units/g substrate, 3.2% (w/v), 30° C., pH 6.0, 24 hours
Protocol: as §1

[4] = test system: α-isomaltosyl-transferring enzyme from Bacillus globisporus C9; settings: panose as saccharide donor, 10 units/g substrate, 3.2% (w/v), 30° C., pH 6.0, 24 hours
Protocol: as §1

[5] = test system: α-isomaltosyl-transferring enzyme from Bacillus globisporus N75; settings: panose as saccharide donor, 10 units/g substrate, 3.2% (w/v), 30° C., pH 6.0, 24 hours
Protocol: as §1

Row | Compound | Product of transferring reaction, Enzyme of Stain A19 [1] | Product of transferring reaction, Enzyme of Strain S1 [2] | Product of transferring reaction, Enzyme of Strain C11 [3] | Product of transferring reaction, Enzyme of Strain C9 [4] | Product of transferring reaction, Enzyme of Strain N75 [5]
1 | O=C[C@H](O)[C@H](O)[C@H](O)CO [D-Ribose, D-ribose] | ± (a saccharide-transferred product formed in an amount of less than one percent to the total sugars) | + (a saccharide-transferred product was formed in an amount of over one percent but below 10% to the total sugars) | − | − | −
2 | CO[C@H]1O[C@H](CO)[C@@H](O)[C@H](O)[C@H]1O [Methyl-α-glucoside, methyl-α-glucoside] | ++ (a saccharide-transferred product was formed in an amount of over 10% to the total sugars) | ++ (a saccharide-transferred product was formed in an amount of over 10% to the total sugars) | ++ (a saccharide-transferred product was formed in an amount of over 10% to the total sugars) | ++ (a saccharide-transferred product was formed in an amount of over 10% to the total sugars) | ++ (a saccharide-transferred product was formed in an amount of over 10% to the total sugars)
3 | OC[C@@H](O)[C@@H](O)[C@H](O)[C@@H](O)CO [Sorbitol, sorbitol] | ± (a saccharide-transferred product formed in an amount of less than one percent to the total sugars) | ± (a saccharide-transferred product formed in an amount of less than one percent to the total sugars) | − | − | −
4 | OC[C@@H](O)[C@@H](O)[C@@H](O)CO [Ribitol, ribitol] | − | ± (a saccharide-transferred product formed in an amount of less than one percent to the total sugars) | − | − | −
5 | OC[C@@H](O)C(O)[C@H](O)CO [Arabitol, arabitol] | − | ± (a saccharide-transferred product formed in an amount of less than one percent to the total sugars) | − | − | −
6 | isomaltosylglucoside | ++ (a saccharide-transferred product was formed in an amount of over 10% to the total sugars) | ++ (a saccharide-transferred product was formed in an amount of over 10% to the total sugars) | ++ (a saccharide-transferred product was formed in an amount of over 10% to the total sugars) | ++ (a saccharide-transferred product was formed in an amount of over 10% to the total sugars) | ++ (a saccharide-transferred product was formed in an amount of over 10% to the total sugars)
7 | O=C(CO)[C@@H](O)[C@H](O)[C@H](O)CO [D-Fructose, D-fructose] | ± (a saccharide-transferred product formed in an amount of less than one percent to the total sugars) | + (a saccharide-transferred product was formed in an amount of over one percent but below 10% to the total sugars) | − | − | −
